Reference: US20150275313A1, “MARKER FOR DIAGNOSIS OF BLADDER CANCER RECURRENCE” (Dong-A University Research Foundation For Industry-Academy …, priority 2014, published 2015)

What was measured:
Format in all cases: cell-based
[1] = test system: invasive cell lines (5637, EJ); test: Cell viability of bladder cancer cell lines treated with doxorubicin; details: invasive cell lines (5637, EJ) compared with non-muscle invasive cell lines (UC5, UC9); doxorubicin 0 to 50 μM for 12 hours or 24 hours; FIG. 9A
FOXM1 and CCNB1 genes = test: Expression of FOXM1 and CCNB1 genes in bladder cancer cell lines treated with doxorubicin; details: invasive cell lines (5637, EJ); doxorubicin 0 to 50 μM for 12 hours or 24 hours; FIG. 9B
Experimental: (§1) Further, the inventors of the present disclosure studied expression of FOXM1, CCNB1 genes, and FANCB, FANCC, and FANCD2 genes relevant to Fanconi anemia pathways after non-muscle invasive cell lines (UC5, UC9) and invasive cell lines (5637, EJ) were treated with doxorubicin used as an anticancer drug for bladder cancer at a concentration of 0 to 50 μM for 12 hours or 24 hours.

[2] = test system: FANCB, FANCC, and FANCD2 genes; test: Expression of DNA repair genes in bladder cancer cell lines treated with doxorubicin; details: non-muscle invasive cell lines (UC5, UC9) and invasive cell lines (5637, EJ); doxorubicin 0 to 50 μM for 12 hours or 24 hours; FIG. 9C
Experimental: as §1
Furthermore, in the non-muscle invasive cell lines (UC5, UC9) and invasive cell lines (5637, EJ) treated as described above, expression of the genes relevant to DNA repair was checked.

COc1cccc2c1C(=O)c1c(O)c3c(c(O)c1C2=O)C[C@@](O)(C(=O)CO)C[C@@H]3O[C@H]1C[C@H](N)[C@H](O)[C@H](C)O1 [doxorubicin]
high: cell viability [1] | expression of FOXM1 and CCNB1 genes (FOXM1 and CCNB1 genes) | expression of the FANCB, FANCC, and FANCD2 genes relevant to Fanconi anemia pathways [2]
